Experimental data as given in US20240108734A1, “METHODS FOR TREATING AND AMELIORATING CANCER” (The Regents of the University of California, priority 2021, published 2024).
“Also recorded” adds a separate entry of the source.

Key:
[1] = tested on: LSC; assay: Serial transplantation of BC CML LSC mouse model (LSC self-renewal); assay type: in vivo, mice
Method: FIG. 4H. Self-renewal capacity of human progenitor cells was evaluated in serially transplanted mouse models. FACS analysis of percentage of live human CD34^+CD38^+Lin^− progenitor cells following serial engraftment of cells derived from mice treated with vehicle (red), mismatch (blue) or imetelstat (green).
FIG. 4I. Kaplan-Meier survival curves of mice transplanted with CD34^+ cells selected from imetelstat treated mouse BM (green) compared with mismatch controls (blue).

[2] = tested on: ABL1; assay: ABL1 expression in human CD45+ cells from treated BC CML mice; assay type: in vivo; conditions: p=0.02
Description: FIG. 5F. Boxplot depicting Log 2 (cpm) expression of ABL1 by RNA-seq analysis of human CD45^+ cells isolated from vehicle (red), mismatch control (blue) and imetelstat (green) treated BC CML mouse cells (Student's t-test: vehicle: p=0.037, imetelstat: p=0.02).

[3] = tested on: ADAR1-mediated RNA editing; assay: RNA-seq quantification of ADAR1-mediated A-to-I RNA editing in treated BC CML mice; assay type: in vivo; conditions: human cells from imetelstat treated LSC mouse models; p=0.037
Method: For gene expression and RNA editing analysis, RNA editing sites were identified in REDIportal^34 (see the Supplementary Appendix). […] Gene Set Enrichment Analysis was performed with the Bioconductor package GSVA (see the Supplementary Appendix)^36. For in vitro and in vivo experiments, the Student's t-test was utilized to evaluate statistical significance of normally distributed data and Wilcoxon tests were utilized for non-normally distributed data with a p value of <0.05.
To quantify adenosine-to-inosine (A-to-I) RNA editing events induced by ADAR1, RNA reads were aligned using 2-pass alignment with STAR 2.5.2b 2-pass alignment. […] All sites were kept if a minimum of three alternative allele carrying reads and ten total reads and a minimum allele frequency of 0.10 were present. […] We only predicted RNA editing sites with >10 reads/site to compare mismatches and excluded sites that were identified as DNA variants. […] To account for multiple testing, adjusted p-values were calculated using the Benjamini-Hochberg procedure and genes with events below an adjusted p-value of 0.05 were called significant and retained in the final lists.
FIG. 5H. A boxplot depicting detectable RNA edits per million aligned reads in human CD45^+ cells derived from vehicle (red), mismatch control (blue) and imetelstat (green) treated BC CML mouse models. […]

[4] = tested on: beta-catenin; assay: FACS analysis of beta-catenin in normal HSC engrafted mouse model; assay type: in vivo; conditions: human CD45+ cells and CD34+CD38- stem cells in BM
Method: To assess WNT/beta-catenin activation in response to ADAR1 upregulation, a lentiviral TCF/LEF reporter was utilized in human blast crisis CML cells, K562^26. Lentiviral pCDH backbone, ADAR1^WT, shControl, and shADAR1 K562 stable cell lines were transduced with pGreenFire1-TCF/LEF1 reporter (SBI) lentivirus for 72-hours prior to CellTiter-Glo and One-Glo luciferase assays (Promega). A minimum of 50,000 cells were plated in duplicate, lysed according to the manufacturer's protocol, and measured using preloaded protocols on a Promega GloMax Discover Microplate Reader. One-Glo luciferase readouts were normalized to corresponding CellTiter-Glo values. Activated beta-catenin levels in HSC and HPCs were also quantified using a MACS Quant instrument following staining of cells with Viability Near-IR, Lineage PE-Cy5, CD45 BV510, CD34 BV421, CD38 PE-Cy7, GFP, and beta-catenin AF647 antibodies (Becton Dickinson, Inc). […] Mean fluorescence intensity (MF) of active beta-catenin in human CD45+ cells, HSCs (CD45^+CD34^+CD38^− Lin) and HPCs (CD45^+CD34^+CD38^+Lin^−) derived from engrafted bone marrow and spleen was determined with a Miltenyi Biotec MACS Quant flow cytometer.

## imetelstat
[1]; compared with mismatch control treatment, p=0.04
  LSC engraftment after serial transplantation: significantly less
[1]; compared with mismatch controls, p=0.05
  survival rates of serially transplanted mice (Kaplan-Meier): longer
[2]
  ABL1 expression: significantly reduced
[3]
  ADAR1-mediated adenosine to inosine RNA editing by RNA-seq: significant reduction; also recorded: significantly reduced
[4]
  beta-catenin expression / activity in normal HSC engrafted mice: no significant decrease; also recorded: does not reduce; also recorded: no significant difference
